Like-named read-outs stand apart in the source and are kept apart here.
Biological target: T1, mAChR M4 (Homo sapiens, UniProt P08173)
T1 construct: expressed in transfected cells; host or cells: CHO-K1 cells stably transfected with M4 cDNA and chimeric G-protein Gqi5
T1 sequence (P08173 1-479): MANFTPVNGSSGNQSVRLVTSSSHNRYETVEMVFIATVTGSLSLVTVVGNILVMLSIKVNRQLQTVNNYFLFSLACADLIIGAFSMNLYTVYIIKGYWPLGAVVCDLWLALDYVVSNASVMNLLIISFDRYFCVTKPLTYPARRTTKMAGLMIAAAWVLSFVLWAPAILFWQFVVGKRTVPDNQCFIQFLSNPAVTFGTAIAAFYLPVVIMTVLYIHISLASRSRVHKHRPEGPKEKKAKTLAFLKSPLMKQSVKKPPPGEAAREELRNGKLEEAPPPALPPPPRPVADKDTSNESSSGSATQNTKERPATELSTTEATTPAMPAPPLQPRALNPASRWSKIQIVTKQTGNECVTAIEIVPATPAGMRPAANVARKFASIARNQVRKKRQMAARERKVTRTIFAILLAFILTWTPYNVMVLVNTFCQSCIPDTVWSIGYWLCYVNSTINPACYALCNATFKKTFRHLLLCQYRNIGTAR
Experiment: mAChR M4 cell-based functional assay (calcium mobilization, potentiation of EC20 acetylcholine response)
Details: for Emax at 30 µM: % ACh maximum at 30 μM

[1] = mAChR M4 cell-based functional assay, >10,000 estimated for low potency compounds without plateau, read-out: EC50

Structure (SMILES) | Emax at 30 µM [%] | EC50 (EC50 (nM)) [nM] | EC50 [1] [nM]
Cc1nnc2sc(C(=O)NCc3ccc(S(F)(F)(F)(F)F)cc3)c(N)c2c1C [Example B297] | 76 | 30 | 
Cc1nnc2sc(C(=O)NCc3ccc(C#N)c(F)c3)c(N)c2c1C [Example B451] | 66 |  | 340
Nc1c(C(=O)NCC2CC2)sc2nnc3c(c12)CCCC3 [Example B54] | 37 |  | 790
Cc1nnc2sc(C(=O)N3CC(F)(c4ccc([S+](C)[O-])cc4)C3)c(N)c2c1C (stereo not shown) [Example B384] | 71 |  | 1100
Cc1nnc2sc(C(=O)NCc3ccccc3)c(N)c2c1C [Example B9] | 97 |  | 170
Cc1cc(F)ncc1-c1ccc(CNC(=O)c2sc3nnc(C)c(C)c3c2N)cc1 [Example B498] | 82 |  | 330
Nc1c(C(=O)NCc2ccc(S(=O)(=O)CF)cc2)sc2nnc3c(c12)CCCC3 [Example B428] | 51 |  | 88
Cc1nnc2sc(C(=O)NCc3ccc(-c4ccnc(F)c4)cc3)c(N)c2c1C [Example B461] | 84 |  | 23
Cc1nnc2sc(C(=O)NCc3ccc(OCC(F)F)cc3)c(N)c2c1C [Example B176] | 73 |  | 23
Cc1nnc2sc(C(=O)NC3CN(C(=O)OC(C)(C)C)C3)c(N)c2c1C [Example B83] | 58 |  | 29
Cc1nnc2sc(C(=O)NCc3ccc(-n4ccnc4)cc3)c(N)c2c1C [Example B490] | 61 |  | 20
COc1ccc(CNC(=O)c2sc3nnc4c(c3c2N)CCCC4)cc1 [Example B52] | 54 |  | 77
Cc1nnc2sc(C(=O)N3CC(Sc4ccccc4)C3)c(N)c2c1C [Example B405] | 46 |  | 92
COc1ccccc1C1(OC)CN(C(=O)c2sc3nnc(C)c(C)c3c2N)C1 [Example B294] | 43 |  | 1100
Cc1nnc2sc(C(=O)NC3CN(C(=O)N4CCCCC4)C3)c(N)c2c1C [Example B125] | 58 |  | 1000
Cc1nnc2sc(C(=O)NC3CC3c3ccc(S(C)(=O)=O)cc3)c(N)c2c1C (stereo not shown) [Example B109] | 78 |  | 120
COc1ccc(CNC(=O)c2sc3nnc(C)c(C)c3c2N)cc1F [Example B90] | 58 |  | 
Cc1nnc2sc(C(=O)N3CCC(c4ccccc4)C3C)c(N)c2c1C (stereo not shown) [Example B163] | 54 |  | 240
Cc1nnc2sc(C(=O)NC3CCCC3)c(N)c2c1C [Example B87] | 57 |  | 280
Cc1nnc2sc(C(=O)N3CC(NC(=O)c4ccccc4)C3)c(N)c2c1C [Example B169] | 68 |  | 1500
Cc1nnc2sc(C(=O)NC3CCN(c4ccccc4F)C3)c(N)c2c1C (stereo not shown) [Example B339] | 74 |  | 76
Cc1nnc2sc(C(=O)NCCNC(=O)C3CC3)c(N)c2c1C [Example B367] | 52 |  | > 10000
Cc1nnc2sc(C(=O)NC3CN(C(=O)c4ccncc4)C3)c(N)c2c1C [Example B150] | 62 |  | 190
Cc1nnc2sc(C(=O)NCc3ccc([S+]([O-])C(F)(F)F)cc3)c(N)c2c1C (stereo not shown) [Example B476] | 66 |  | 1600
[2H]C([2H])(NC(=O)c1sc2nnc(C)c(C)c2c1N)c1ccc(OC)cc1 [Example B37] | 68 |  | 32
Cc1nnc2sc(C(=O)NCc3ccc(N(C)C)cc3)c(N)c2c1C [Example B449] | 71 |  | 69
Cc1nnc2sc(C(=O)NC3CCN(c4ccc(C(F)(F)F)cc4)C3)c(N)c2c1C (stereo not shown) [Example B283] | 76 |  | 180
Cc1nnc2sc(C(=O)N3CC4(CN(C(=O)OCc5ccccc5)C4)C3)c(N)c2c1C [Example B398] | 47 |  | 1000
